Key:
[1] = tested on: Italian ryegrass; assay: Test Example 5: herbicidal effect by foliage application, plastic box (Table 20, symbol K); format: in vivo, Italian ryegrass (Lolium multiflorum); details: foliage application, 320 g/ha, evaluated three weeks after application
In short: (§1)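 Post-emergence foliar test in sterilized diluvial soil. Compound applied as water-diluted emulsion at a predetermined rate to 14-day-old plants; evaluation at three weeks.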

[2] = tested on: chickweed; assay: Test Example 4: herbicidal effect by soil treatment (Table 19, symbol P); format: in vivo, common chickweed (Stellaria media); details: amount of applied herbicide 320 g/ha
In short: (§2)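 Scoring uses the grading scale of an earlier test, three weeks post-application. Treatment consists of spraying a diluted emulsion formulation across the surface of sterilized diluvial soil in which seeds are buried near 1.5 cm deep; boxes are kept in a greenhouse between 25° C. and 30° C.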

[3] = tested on: velvetleaf; assay: Test Example 5: herbicidal effect by foliage application, plastic box (Table 20, symbol M); format: in vivo, velvetleaf (Abutilon theophrasti); details: foliage application, 320 g/ha, evaluated three weeks after application
In short: as §1

[4] = tested on: southern crabgrass; assay: Test Example 4: herbicidal effect by soil treatment (Table 19, symbol F); format: in vivo, southern crabgrass (Digitaria ciliaris); details: amount of applied herbicide 320 g/ha
In short: as §2

[5] = tested on: Chinese sprangletop; assay: Test Example 3: herbicidal effect by foliage application, Wagner pot (Table 18, symbol D); format: in vivo, chinese sprangletop (Leptochloa chinensis); details: amount of applied herbicide 320 g/ha
In short: (§3)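 Plants were sown in alluvial soil held under 0.1–0.5 cm standing water and grown 14 days in a greenhouse at 25–30 °C. An emulsifiable formulation, water-diluted to the set dose, was then sprayed onto the foliage, and effects were scored three weeks later using previously defined criteria.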

[6] = tested on: lambsquarters; assay: Test Example 5: herbicidal effect by foliage application, plastic box (Table 20, symbol O); format: in vivo, lambsquarters (Chenopodium album); details: foliage application, 320 g/ha, evaluated three weeks after application
In short: as §1

[7] = tested on: late watergrass; assay: Test Example 1: herbicidal activity, application before weed generation under submerged conditions (Table 16, symbol A); format: in vivo, late watergrass (Echinochloa oryzicola); details: 320 g/ha applied herbicide
In short: (§4)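 Submerged Wagner pots (alluvial soil, 4 cm water) sown with weed seeds and planted with 2.5-leaf rice seedlings; emulsifiable concentrate diluted in water applied to water surface on sowing day. Held in greenhouse at 25-30 °C; injury scored 0-5 by herbicidal rate after three weeks.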

[8] = tested on: wild oat; assay: Test Example 5: herbicidal effect by foliage application, plastic box (Table 20, symbol I); format: in vivo, wild oat (Avena fatua); details: foliage application, 320 g/ha, evaluated three weeks after application
In short: as §1

[9] = tested on: southern crabgrass; assay: Test Example 5: herbicidal effect by foliage application, plastic box (Table 20, symbol F); format: in vivo, southern crabgrass (Digitaria ciliaris); details: foliage application, 320 g/ha, evaluated three weeks after application
In short: as §1

[10] = tested on: barnyard grass; assay: Test Example 5: herbicidal effect by foliage application, plastic box (Table 20, symbol H); format: in vivo, barnyard grass (Echinochloa crus-galli); details: foliage application, 320 g/ha, evaluated three weeks after application
In short: as §1

[11] = tested on: green foxtail; assay: Test Example 4: herbicidal effect by soil treatment (Table 19, symbol G); format: in vivo, green foxtail (Setaria viridis); details: amount of applied herbicide 320 g/ha
In short: as §2

[12] = tested on: wild oat; assay: Test Example 4: herbicidal effect by soil treatment (Table 19, symbol I); format: in vivo, wild oat (Avena fatua); details: amount of applied herbicide 320 g/ha
In short: as §2

[13] = tested on: lambsquarters; assay: Test Example 4: herbicidal effect by soil treatment (Table 19, symbol O); format: in vivo, lambsquarters (Chenopodium album); details: amount of applied herbicide 320 g/ha
In short: as §2

[14] = tested on: barnyard grass; assay: Test Example 3: herbicidal effect by foliage application, Wagner pot (Table 18, symbol H); format: in vivo, barnyard grass (Echinochloa crus-galli); details: amount of applied herbicide 320 g/ha
In short: as §3

[15] = tested on: chickweed; assay: Test Example 5: herbicidal effect by foliage application, plastic box (Table 20, symbol P); format: in vivo, common chickweed (Stellaria media); details: foliage application, 320 g/ha, evaluated three weeks after application
In short: as §1

[16] = tested on: blackgrass; assay: Test Example 5: herbicidal effect by foliage application, plastic box (Table 20, symbol J); format: in vivo, blackgrass (Alopecurus myosuroides); details: foliage application, 320 g/ha, evaluated three weeks after application
In short: as §1

[17] = tested on: redroot pigweed; assay: Test Example 5: herbicidal effect by foliage application, plastic box (Table 20, symbol N); format: in vivo, redroot pigweed (Amaranthus retroflexus); details: foliage application, 320 g/ha, evaluated three weeks after application
In short: as §1

[18] = tested on: barnyard grass; assay: Test Example 4: herbicidal effect by soil treatment (Table 19, symbol H); format: in vivo, barnyard grass (Echinochloa crus-galli); details: amount of applied herbicide 320 g/ha
In short: as §2

[19] = tested on: redroot pigweed; assay: Test Example 4: herbicidal effect by soil treatment (Table 19, symbol N); format: in vivo, redroot pigweed (Amaranthus retroflexus); details: amount of applied herbicide 320 g/ha
In short: as §2

[20] = tested on: false cleavers; assay: Test Example 4: herbicidal effect by soil treatment (Table 19, symbol Q); format: in vivo, false cleavers (Galium spurium); details: amount of applied herbicide 320 g/ha
In short: as §2

[21] = tested on: green foxtail; assay: Test Example 5: herbicidal effect by foliage application, plastic box (Table 20, symbol G); format: in vivo, green foxtail (Setaria viridis); details: foliage application, 320 g/ha, evaluated three weeks after application
In short: as §1

[22] = tested on: persian speedwell; assay: Test Example 4: herbicidal effect by soil treatment (Table 19, symbol R); format: in vivo, Persian speedwell (Veronica persica); details: amount of applied herbicide 320 g/ha
In short: as §2

[23] = tested on: persian speedwell; assay: Test Example 5: herbicidal effect by foliage application, plastic box (Table 20, symbol R); format: in vivo, Persian speedwell (Veronica persica); details: foliage application, 320 g/ha, evaluated three weeks after application
In short: as §1

[24] = tested on: Italian ryegrass; assay: Test Example 4: herbicidal effect by soil treatment (Table 19, symbol K); format: in vivo, Italian ryegrass (Lolium multiflorum); details: amount of applied herbicide 320 g/ha
In short: as §2

[25] = tested on: windgrass; assay: Test Example 5: herbicidal effect by foliage application, plastic box (Table 20, symbol L); format: in vivo, windgrass (Apera spica-venti); details: foliage application, 320 g/ha, evaluated three weeks after application
In short: as §1

[26] = tested on: blackgrass; assay: Test Example 4: herbicidal effect by soil treatment (Table 19, symbol J); format: in vivo, blackgrass (Alopecurus myosuroides); details: amount of applied herbicide 320 g/ha
In short: as §2

[27] = tested on: Japanese bulrush; assay: Test Example 1: herbicidal activity, application before weed generation under submerged conditions (Table 16, symbol B); format: in vivo, Japanese bulrush (Schoenoplectus juncoides); details: 320 g/ha applied herbicide
In short: as §4

[28] = tested on: oval-leafed pondweed; assay: Test Example 1: herbicidal activity, application before weed generation under submerged conditions (Table 16, symbol C); format: in vivo, oval-leafed pondweed (Monochoria vaginalis); details: 320 g/ha applied herbicide
In short: as §4

[29] = tested on: velvetleaf; assay: Test Example 4: herbicidal effect by soil treatment (Table 19, symbol M); format: in vivo, velvetleaf (Abutilon theophrasti); details: amount of applied herbicide 320 g/ha
In short: as §2

[30] = tested on: windgrass; assay: Test Example 4: herbicidal effect by soil treatment (Table 19, symbol L); format: in vivo, windgrass (Apera spica-venti); details: amount of applied herbicide 320 g/ha
In short: as §2

COc1cc(F)ccc1-c1sc2ccc(NC(C)=O)cc2c1-c1c(O)c(C)nn(C)c1=O [2-175]
herbicidal effect on K: Italian ryegrass (criteria 0-5) [1]: 0 (Herbicidal rate of 5% or less (almost no effect))
P: chickweed, herbicidal effect rating [2]: 0 (Herbicidal rate of 5% or less (almost no effect))
herbicidal effect on M: velvetleaf (criteria 0-5) [3]: 3 (Herbicidal rate of 40% or more and less than 70%)
F: southern crabgrass, herbicidal effect rating [4]: 0 (Herbicidal rate of 5% or less (almost no effect))
herbicidal effect on D: Chinese sprangletop [5]: 3 (Herbicidal rate of 40% or more and less than 70%)
herbicidal effect on O: lambsquarters (criteria 0-5) [6]: 5 (Herbicidal rate of 90% or more (almost completely withered))
Herbicidal effect on A: late watergrass (grade 0-5) [7]: 3 (Herbicidal rate of 40% or more and less than 70%)
herbicidal effect on I: wild oat (criteria 0-5) [8]: 3 (Herbicidal rate of 40% or more and less than 70%)
herbicidal effect on F: southern crabgrass (criteria 0-5) [9]: 3 (Herbicidal rate of 40% or more and less than 70%)
herbicidal effect on H: barnyard grass (criteria 0-5) [10]: 1 (Herbicidal rate of 5% or more and less than 20%)
G: green foxtail, herbicidal effect rating [11]: 0 (Herbicidal rate of 5% or less (almost no effect))
I: wild oat, herbicidal effect rating [12]: 0 (Herbicidal rate of 5% or less (almost no effect))
O: lambsquarters, herbicidal effect rating [13]: 4 (Herbicidal rate of 70% or more and less than 90%)
herbicidal effect on H: barnyard grass [14]: 4 (Herbicidal rate of 70% or more and less than 90%)
herbicidal effect on P: chickweed (criteria 0-5) [15]: 5 (Herbicidal rate of 90% or more (almost completely withered))
herbicidal effect on J: blackgrass (criteria 0-5) [16]: 5 (Herbicidal rate of 90% or more (almost completely withered))
herbicidal effect on N: redroot pigweed (criteria 0-5) [17]: 5 (Herbicidal rate of 90% or more (almost completely withered))
H: barnyard grass, herbicidal effect rating [18]: 0 (Herbicidal rate of 5% or less (almost no effect))
N: redroot pigweed, herbicidal effect rating [19]: 4 (Herbicidal rate of 70% or more and less than 90%)
Q: false cleavers, herbicidal effect rating [20]: 0 (Herbicidal rate of 5% or less (almost no effect))
herbicidal effect on G: green foxtail (criteria 0-5) [21]: 4 (Herbicidal rate of 70% or more and less than 90%)
R: persian speedwell, herbicidal effect rating [22]: 0 (Herbicidal rate of 5% or less (almost no effect))
herbicidal effect on R: persian speedwell (criteria 0-5) [23]: 1 (Herbicidal rate of 5% or more and less than 20%)
K: Italian ryegrass, herbicidal effect rating [24]: 0 (Herbicidal rate of 5% or less (almost no effect))
herbicidal effect on L: windgrass (criteria 0-5) [25]: 5 (Herbicidal rate of 90% or more (almost completely withered))
J: blackgrass, herbicidal effect rating [26]: 0 (Herbicidal rate of 5% or less (almost no effect))
Herbicidal effect on B: Japanese bulrush (grade 0-5) [27]: 0 (Herbicidal rate of 5% or less (almost no effect))
Herbicidal effect on C: oval-leafed pondweed (grade 0-5) [28]: 0 (Herbicidal rate of 5% or less (almost no effect))
M: velvetleaf, herbicidal effect rating [29]: 0 (Herbicidal rate of 5% or less (almost no effect))
L: windgrass, herbicidal effect rating [30]: 0 (Herbicidal rate of 5% or less (almost no effect))

— patent publication US20230085307A1, “PYRIDAZINONE COMPOUND AND HERBICIDE” (NISSAN CHEMICAL CORPORATION, priority 2019, published 2023)
